{"source": "patent US12421495B2", "about": "“Compositions and methods for selective phagocytosis of human cancer cells” (THE TRUSTEES OF THE UNIVERSITY OF PENNSYLVANIA, priority 2015, dated 2025)", "origin": "cited, not measured here", "test_system": "tdTomato A549 tumors", "conditions": "same tumor model; Nair et al. 2016", "data": [{"smiles": "CC(=O)O[C@H]1C(=O)[C@@]2(C)[C@H]([C@H](OC(=O)c3ccccc3)[C@]3(O)C[C@H](OC(=O)[C@H](O)[C@@H](NC(=O)c4ccccc4)c4ccccc4)C(C)=C1C3(C)C)[C@]1(OC(C)=O)CO[C@@H]1C[C@@H]2O", "note": "[Paclitaxel]", "values": [{"measurement": "tumor shrinkage by day 10", "result": "−25", "unit": "%"}]}]}
